In PubChem BioAssay AID248 (DTP/NCI, 2004):
Where “and” joins values, the source holds several entries; their conditions need not be identical. Identical values can stand only once. Toxic doses and inconclusive results are not listed. Cut-off read from the data, not from the text of the source: active = T/C of 150% or more; inactive = T/C below 125%.

Tested on: L1210 leukemia ip in BDF1 mice, survival T/C
Test: NCI In Vivo Anticancer Drug Screen. Data for tumor model L1210 Leukemia (intraperitoneal) in B6D2F1 (BDF1) mice
Conditions: endpoint: mean survival time, higher = longer survival
Outline: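 Read-out is survival time, reported as the treated-group measurement over the vehicle-control measurement.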

[1] = dose: 10.0 mg/kg/injection, schedule: Q01DX001 (ip), vehicle: saline
[2] = dose: 20.0 mg/kg/injection, schedule: Q01DX001 (ip), vehicle: saline
[3] = dose: 200.0 mg/kg/injection, schedule: Q04DX002 (ip), vehicle: Klucel (hydroxypropylcellulose) (HPC)
[4] = dose: 400.0 mg/kg/injection, schedule: Q04DX002 (ip), vehicle: Klucel (hydroxypropylcellulose) (HPC)
[5] = dose: 200.0 mg/kg/injection, schedule: Q04DX003 (ip), vehicle: saline with Tween-80
[6] = dose: 100.0 mg/kg/injection, schedule: Q01DX009 (ip), vehicle: Klucel (hydroxypropylcellulose) (HPC)
[7] = dose: 100.0 mg/kg/injection, schedule: Q04DX003 (ip), vehicle: Klucel (hydroxypropylcellulose) (HPC)
[8] = dose: 200.0 mg/kg/injection, schedule: Q01DX009 (ip), vehicle: Klucel (hydroxypropylcellulose) (HPC)
[9] = dose: 200.0 mg/kg/injection, schedule: Q04DX003 (ip), vehicle: Klucel (hydroxypropylcellulose) (HPC)
[10] = dose: 400.0 mg/kg/injection, schedule: Q04DX003 (ip), vehicle: Klucel (hydroxypropylcellulose) (HPC)
[11] = dose: 100.0 mg/kg/injection, schedule: Q01DX001 (ip), vehicle: saline
[12] = dose: 200.0 mg/kg/injection, schedule: Q01DX001 (ip), vehicle: saline
[13] = dose: 400.0 mg/kg/injection, schedule: Q01DX001 (ip), vehicle: saline

Measured: T/C

CC(C)COC(=O)CCCc1ccc(N(CCCl)CCCl)cc1
inactive: dose: 100.0 mg/kg/injection, schedule: Q04DX002 (ip), vehicle: saline 121 % of control | dose: 200.0 mg/kg/injection, schedule: Q04DX002 (ip), vehicle: saline 111 % of control

c1ccc([P+](c2ccccc2)(c2ccccc2)C2CN=NC2)cc1
inactive: [1] 103 % of control | [2] 108 % of control | dose: 40.0 mg/kg/injection, schedule: Q01DX001 (ip), vehicle: saline 112 % of control

CC(=O)c1cccc2c1cc(Cl)c1ccccc12
inactive: dose: 55.0 mg/kg/injection, schedule: Q01DX Z (ip), vehicle: methylcellulose (MC) 100 % of control | dose: 83.0 mg/kg/injection, schedule: Q01DX Z (ip), vehicle: methylcellulose (MC) 93 % of control | dose: 125.0 mg/kg/injection, schedule: Q01DX Z (ip), vehicle: methylcellulose (MC) 93 % of control

CC(=O)OC/N=[N+](/C)[O-]
inactive: dose: 2.0 mg/kg/injection, schedule: Q01DX Z (ip), vehicle: saline 98 % of control | dose: 4.0 mg/kg/injection, schedule: Q01DX Z (ip), vehicle: saline 110 % of control | dose: 6.0 mg/kg/injection, schedule: Q01DX Z (ip), vehicle: saline 97 % of control | dose: 8.0 mg/kg/injection, schedule: Q01DX Z (ip), vehicle: saline 104 % of control | dose: 12.5 mg/kg/injection, schedule: Q01DX Z (ip), vehicle: saline 91 % of control

O=[N+]([O-])c1cc(S(=O)(=O)c2ccc(S)c([N+](=O)[O-])c2)ccc1S
inactive: dose: 100.0 mg/kg/injection, schedule: Q04DX002 (ip), vehicle: Klucel (hydroxypropylcellulose) (HPC) 89 % of control | [3] 92 % of control | [4] 92 % of control

CCCCCCCCCCCc1cc(=O)n(-c2ccccc2)n1C
inactive: dose: 12.5 mg/kg/injection, schedule: Q04DX003 (ip), vehicle: saline with Tween-80 92 % of control | dose: 25.0 mg/kg/injection, schedule: Q04DX003 (ip), vehicle: saline with Tween-80 98 % of control | dose: 50.0 mg/kg/injection, schedule: Q04DX003 (ip), vehicle: saline with Tween-80 95 % of control | [5] 102 % of control

O=[N+]([O-])c1c(Cl)c(Cl)cc(Cl)c1Cl
inactive: [6] 102 % of control and 92 % of control | [7] 93 % of control and 97 % of control | [8] 106 % of control and 91 % of control | [9] 101 % of control | dose: 400.0 mg/kg/injection, schedule: Q01DX009 (ip), vehicle: Klucel (hydroxypropylcellulose) (HPC) 95 % of control and 92 % of control | [10] 95 % of control and 100 % of control

OCc1ccccc1O
inactive: dose: 50.0 mg/kg/injection, schedule: Q01DX009 (ip), vehicle: Klucel (hydroxypropylcellulose) (HPC) 105 % of control | dose: 100.0 mg/kg/injection, schedule: Q01DX001 (ip), vehicle: Klucel (hydroxypropylcellulose) (HPC) 100 % of control | [6] 102 % of control | dose: 200.0 mg/kg/injection, schedule: Q01DX001 (ip), vehicle: Klucel (hydroxypropylcellulose) (HPC) 100 % of control | [8] 102 % of control | dose: 400.0 mg/kg/injection, schedule: Q01DX001 (ip), vehicle: Klucel (hydroxypropylcellulose) (HPC) 106 % of control

CCCC[n+]1[nH]oc(=O)c1C(=O)[O-]
inactive: [7] 98 % of control

O=C(O)c1cscc1-c1cccc2ccccc12
inactive: dose: 100.0 mg/kg/injection, schedule: Q04DX003 (ip), vehicle: saline with Tween-80 91 % of control | [5] 98 % of control

COC(=O)c1sccc1C=O
inactive: dose: 50.0 mg/kg/injection, schedule: Q01DX001 (ip), vehicle: saline 103 % of control | [11] 100 % of control | [7] 100 % of control | dose: 100.0 mg/kg/injection, schedule: Q04DX003 (ip), vehicle: acetone 98 % of control | [12] 100 % of control | [9] 104 % of control | dose: 200.0 mg/kg/injection, schedule: Q04DX003 (ip), vehicle: acetone 102 % of control | [13] 97 % of control | [10] 105 % of control | dose: 400.0 mg/kg/injection, schedule: Q04DX003 (ip), vehicle: acetone 89 % of control

CCCN(C(=O)CCl)c1ccccc1
inactive: dose: 12.5 mg/kg/injection, schedule: Q04DX002 (ip), vehicle: Klucel (hydroxypropylcellulose) (HPC) 122 % of control | dose: 25.0 mg/kg/injection, schedule: Q04DX002 (ip), vehicle: Klucel (hydroxypropylcellulose) (HPC) 94 % of control | dose: 50.0 mg/kg/injection, schedule: Q04DX002 (ip), vehicle: Klucel (hydroxypropylcellulose) (HPC) 105 % of control

COC12C(COC(=O)NCCO)C3=C(C(=O)C(C)=C(N)C3=O)N1CC1NC12 (configuration not stated)
inactive: dose: 5.0 mg/kg/injection, schedule: Q01DX009 (ip), vehicle: saline 121 % of control | dose: 10.0 mg/kg/injection, schedule: Q01DX009 (ip), vehicle: saline 122 % of control | dose: 12.0 mg/kg/injection, schedule: Q04DX003 (ip), vehicle: Klucel (hydroxypropylcellulose) (HPC) 94 % of control | dose: 19.0 mg/kg/injection, schedule: Q04DX003 (ip), vehicle: Klucel (hydroxypropylcellulose) (HPC) 111 % of control | dose: 28.0 mg/kg/injection, schedule: Q04DX003 (ip), vehicle: Klucel (hydroxypropylcellulose) (HPC) 111 % of control | dose: 40.0 mg/kg/injection, schedule: Q01DX009 (ip), vehicle: saline 102 % of control | dose: 43.0 mg/kg/injection, schedule: Q01DX001 (ip), vehicle: Klucel (hydroxypropylcellulose) (HPC) 121 % of control | dose: 43.0 mg/kg/injection, schedule: Q01DX009 (ip), vehicle: Klucel (hydroxypropylcellulose) (HPC) 109 % of control | dose: 43.0 mg/kg/injection, schedule: Q04DX003 (ip), vehicle: Klucel (hydroxypropylcellulose) (HPC) 115 % of control | dose: 100.0 mg/kg/injection, schedule: Q01DX003 (ip), vehicle: Klucel (hydroxypropylcellulose) (HPC) 103 % of control | dose: 150.0 mg/kg/injection, schedule: Q01DX001 (ip), vehicle: Klucel (hydroxypropylcellulose) (HPC) 102 % of control | dose: 150.0 mg/kg/injection, schedule: Q01DX003 (ip), vehicle: Klucel (hydroxypropylcellulose) (HPC) 94 % of control | [3] 91 % of control | dose: 225.0 mg/kg/injection, schedule: Q01DX001 (ip), vehicle: Klucel (hydroxypropylcellulose) (HPC) 91 % of control | dose: 225.0 mg/kg/injection, schedule: Q01DX003 (ip), vehicle: Klucel (hydroxypropylcellulose) (HPC) 95 % of control | [4] 91 % of control

Cc1ccc(S(=O)(=O)OCC2CC=CCC2COS(=O)(=O)c2ccc(C)cc2)cc1 (configuration not stated)
inactive: [11] 88 % of control | [12] 92 % of control | [13] 88 % of control

C/C=C/CC1(Cc2ccccc2)C(=O)NC(=S)NC1=O
inactive: [1] 102 % of control | [2] 111 % of control

Cc1cc(Nc2ccc(C)c(C)c2)nc(N)n1
inactive: dose: 100.0 mg/kg/injection, schedule: Q01DX Z (ip), vehicle: methylcellulose (MC) 108 % of control

C=C(COc1ccc(Cl)cc1)COc1ccc(Cl)cc1
inactive: dose: 12.5 mg/kg/injection, schedule: Q04DX002 (ip), vehicle: other 115 % of control and 117 % of control | dose: 50.0 mg/kg/injection, schedule: Q04DX003 (ip), vehicle: other 98 % of control and 107 % of control | dose: 100.0 mg/kg/injection, schedule: Q01DX001 (ip), vehicle: other 95 % of control and 99 % of control | dose: 100.0 mg/kg/injection, schedule: Q04DX003 (ip), vehicle: other 96 % of control and 113 % of control | dose: 200.0 mg/kg/injection, schedule: Q01DX001 (ip), vehicle: other 96 % of control and 98 % of control | dose: 200.0 mg/kg/injection, schedule: Q04DX003 (ip), vehicle: other 93 % of control and 106 % of control | dose: 400.0 mg/kg/injection, schedule: Q01DX001 (ip), vehicle: other 91 % of control | dose: 400.0 mg/kg/injection, schedule: Q04DX003 (ip), vehicle: other 95 % of control and 113 % of control

Nc1nc(SN=Nc2ccc(S(=O)(=O)O)cc2)c2[nH]cnc2n1
inactive: dose: 11.0 mg/kg/injection, schedule: Q01DX Z (ip), vehicle: alkali diluted with saline 110 % of control | dose: 17.0 mg/kg/injection, schedule: Q01DX Z (ip), vehicle: alkali diluted with saline 120 % of control | dose: 25.0 mg/kg/injection, schedule: Q01DX Z (ip), vehicle: alkali diluted with saline 112 % of control | dose: 38.0 mg/kg/injection, schedule: Q01DX Z (ip), vehicle: alkali diluted with saline 104 % of control
